Assay results published in US11957699B2, “Composition comprising punicalagin for inhibiting PAR2 activity” (INDUSTRY-ACADEMIC COOPERATION FOUNDATION, YONSEI UNIVERSITY, priority 2018, dated 2024).

Experiments:
[1] = tested on: C57BL6N mice with colitis induced by DSS; assay: Colitis induced by dextran sodium sulfate (DSS) in mice; type: in vivo
Experimental: In 7-week-old C57BL6N mice, it was confirmed whether punicalagin has an effect of alleviating symptoms of colitis induced by dextran sodium sulfate (DSS).
Specifically, while dextran sodium sulfate (DSS), which is a colitis-causing substance, was diluted in water at 2.5% and was fed to the mice for 9 days, 1 mg/kg (n=4), 3 mg/kg (n=4), or 10 mg/kg (n=5) punicalagin was dissolved in physiological saline and intraperitoneally injected once every 48 hours, and the mice were weighed once a day. As control groups, a group which was fed only with 2.5% DSS (n=4), a group which was not fed with DSS and was not injected with punicalagin (n=3), and a group which was not fed with DSS and was injected with punicalagin at 10 mg/kg (n=3) were established, and weight changes, tissue damage, proinflammatory cytokine concentrations, and the like were measured.

[2] = tested on: heart, liver, and lung tissues of lupus mice; assay: Histology (hematoxylin-eosin) of heart, liver and lung of lupus mice; type: in vivo; conditions: 3 mg/kg, 1 mg/kg, and 0.3 mg/kg; vs saline or methylprednisolone groups
Experimental: (§1) In order to determine the toxicity of punicalagin, the effect of NIH3T3 cells on cell viability and the weight change of 8-week-old wild-type mice were evaluated, and the heart, liver, and lung were extracted from 30-week-old lupus mice and were histologically evaluated by performing hematoxylin-eosin staining.

[3] = tested on: SD rats with acute pancreatitis induced by caerulein; assay: Acute pancreatitis induced by caerulein in rats; type: in vivo
Experimental: In 6-week-old SD rats, it was confirmed whether punicalagin has an effect of alleviating symptoms of acute pancreatitis induced by caerulein.
Specifically, […], and after 30 minutes, 40 μg/kg of caerulein, which is an acute pancreatitis-inducing substance, was intraperitoneally injected, and then, after 2 hours, the pancreas of the experimental animals was extracted and analyzed.
First, the weight of the extracted pancreas was measured to determine whether punicalagin inhibits edema, which is a symptom of acute pancreatitis. As a result, it was confirmed that when 10 mg/kg punicalagin was administered to […], in which acute pancreatitis was induced by caerulein, the edema of the pancreas was inhibited by 95% or more (panel A of FIG. 8).
Next, as a result of observing the nucleus and cytoplasm of the extracted pancreatic tissue with a microscope through H&E staining in order to confirm the damage to pancreatic cells by caerulein, it was confirmed that in the rats administered with caerulein, the distance between pancreatic cells was increased and the cells were damaged due to symptoms of acute pancreatitis.

PAR2 [4] = target: T1, PAR2 (Homo sapiens, UniProt P55085); assay: CaCC-dependent Cl- secretion (short-circuit current, Ussing chamber) by PAR2-AP in primary cultured human conjunctival epithelial cells; type: cell-based; design: endogenous in cells; conditions: 10 μM for 10 minutes, 100 μM PAR2-AP, after 100 μM amiloride
T1 sequence (P55085 26-397): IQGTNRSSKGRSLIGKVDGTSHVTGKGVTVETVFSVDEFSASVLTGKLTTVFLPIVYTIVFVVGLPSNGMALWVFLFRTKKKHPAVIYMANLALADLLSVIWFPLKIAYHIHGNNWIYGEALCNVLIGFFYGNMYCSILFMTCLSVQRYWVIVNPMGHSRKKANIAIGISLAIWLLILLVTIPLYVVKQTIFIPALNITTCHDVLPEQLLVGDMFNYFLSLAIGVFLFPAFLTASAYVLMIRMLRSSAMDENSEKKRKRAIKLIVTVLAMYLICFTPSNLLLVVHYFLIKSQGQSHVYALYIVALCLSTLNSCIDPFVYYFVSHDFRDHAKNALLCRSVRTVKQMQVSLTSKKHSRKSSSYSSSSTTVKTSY
Experimental: After primary cultured human conjunctival epithelial cells expressing PAR2 were cultured in a transwell, followed by removal of a culture medium on the side of an apical membrane, retinoic acid was added to the side of a basolateral membrane to differentiate for about 2 weeks (Invest Ophthalmol Vis Sci. 2013 Oct. 29; 54(10): 7143-52), and then, short-circuit currents were measured using a Ussing chamber. […] Next, by treating 10 μM forskolin, which is a an activator of the cystic fibrosis transmembrane conductance regulator (CFTR), the effect of promoting Cl^− secretion by the cystic fibrosis transmembrane conductance regulator (CFTR) channel was measured, and then, by treating 10 μM CFTRihn-172(5-[(4-carboxyphenyl)methylene]-2-thioxo-3-[(3-trifluoromethyl)phenyl-4-thiazolidinone]) (J Clin Invest. 2002 December; 110(11): 1651-8), which is a CFTR inhibitor, it was confirmed that Cl^− secretion by the CFTR channel was inhibited (panel A of FIG. 3).
Meanwhile, Cl^− secretion by PAR1-AP was not measured as a result of the above experiment, and in order to confirm the inhibitory effect of Cl^− secretion during punicalagin treatment. […]

NIH3T3 cells = assay: Cell viability of NIH3T3 cells; type: cell-based; conditions: up to 30 μM
Experimental: as §1

PAR2 [5] = target: T1, PAR2; assay: Cellular signal changes and inflammatory cytokine secretion by PAR2 receptor activity in human glomerular podocytes; type: cell-based; design: endogenous in cells
Experimental: The effects of punicalagin on cellular signal changes and inflammatory cytokine secretion by PAR2 receptor activity in human glomerular podocytes were evaluated.

[6] = 1, 3 or 10 mg/kg intraperitoneally

O=CC1OC(=O)c2cc(O)c(O)c(O)c2-c2c(cc(O)c(O)c2O)C(=O)OC1C1OC(=O)c2cc(O)c(O)c(O)c2-c2c(O)c(O)c3oc(=O)c4c(c(O)c(O)c5oc(=O)c2c3c54)-c2c(cc(O)c(O)c2O)C(=O)OCC1O (centres unmarked) [punicalagin, 1,2,3,11,12,13-hexahydroxy-5,10-dioxo-8-[3,4,5,11,17,18,19,22,23,34,35-undecahydroxy-8,14,26,31-tetraoxo-9,13,25,32-tetraoxaheptacyclo[25.8.0.0^2,7.0^15,20.0^21,30.0^24,29.0^28,33]pentatnaconta-1(35),2,4,6,15,17,19,21,23,27,29,33-dodecaen-10-yl]-5,7,8,10-tetrahydrodibenzo[f,h][1,4]dioxecin-7-carbaldehyde]
colon tissue damage caused by DSS [1, 6]: inhibited
concentration of proinflammatory cytokines increased by DSS [1, 6]: significantly reduced
length of the colon reduced by DSS [1, 6]: recovered
weight loss by DSS ([1]; 1, 3 or 10 mg/kg intraperitoneally once every 48 hours, 2.5% DSS 9 days): inhibited weight loss by DSS in a concentration-dependent manner
histological difference in heart, liver, and lung tissues [2]: no histological difference
inhibition of edema of the pancreas (pancreas weight) ([3]; 10 mg/kg, 30 minutes before 40 μg/kg caerulein, pancreas extracted after 2 hours): ≥ 95%
edema of the pancreas and cell damage (H&E staining) ([3]; pretreated at 3 mg/kg, then caerulein): strongly inhibited
concentrations of inflammatory cytokines (INF-γ, IL-2, IL-4, IL-6, IL-β, TNF-α, IL-1β, etc.) increased by caerulein ([3]; rat, in vivo): significantly decreased
increase in CaCC-dependent Cl- secretion on PAR2 activation (PAR2 [4]): inhibited
effect on viability of NIH3T3 cells (NIH3T3 cells): no effect
expression amounts of VCAM-1 and ICAM-1 increased by PAR2 receptor activity (PAR2 [5]): significantly reduced
expressions of inflammatory cytokines (IL-6, IFN-γ, TNF-α, and IL-8) (PAR2 [5]; concentration-dependent): significantly reduced
phosphorylation of ERK 1/2 according to PAR2 receptor activity by PAR2-AP (PAR2 [5]; concentration-dependent): inhibited
phosphorylation of NF-κB P65 according to PAR2 receptor activity (PAR2 [5]; concentration-dependent): inhibited
